Source: patent US5824670A, “17-deoxycorticosteroid-21-[O]carboxylic esters, processes for their preparation and pharmaceuticals containing these compounds” (priority 1994, dated 1998)

Columns and labels:
carrageenin paw edema = assay: Systemic activity following subcutaneous administration in the carrageenin paw edema test in rats; format: in vivo, Male Sprague-Dawley rats; conditions: for Increase at 3 h (paw volume) / Increase at 6 h (paw volume): x ± s, * = p<0.05 Dunnett
Method: 2a. Testing for systemic activity following subcutaneous administration in the carrageenin paw edema test in rats The method was described by Winter, C. A. et al. in Proc. Soc. exp. Biol. (N.Y.), 111, 544, (1962). Male Sprague-Dawley rats of approximately 200 g body weight, and in group sizes of n=5, were given the substances subcutaneously (0.2 ml/100 g of body weight, dissolved in sesame oil). Controls were given sesame oil alone. 15 minutes later, 0.1 ml of a 0.5% solution of carrageenin was injected into the left hind paw. Prior to this, and at 3 h and 6 h afterwards, the paw volume was measured (ml) and the increase in swelling was ascertained by comparing with the preliminary value. The numbers are mean value and standard deviation (x±s). Statistical significance was assessed using the Dunnett test.

[1] = test system: Gluconeogenesis (liver glycogen and glucose); assay: Systemic effect: Gluconeogenesis in rats; format: in vivo, Male Sprague-Dawley rats
Method: 2b. Testing for systemic effect: Gluconeogenesis in rats
Male Sprague-Dawley rats of approximately 140 g in weight were adrenalectomized. They were given an 0.9% solution of sodium chloride as their drinking water. 48 h later, the animals' feed was removed for 24 h. On the day of the experiment (3 days after adrenalectomy and 1 day of starvation), the experimental preparations were administered s.c. (2 ml/kg in sesame oil, with controls only receiving this vehicle). The animals were decapitated 6 h later, with 1 g of liver being removed in each case. The sample was taken up in 5 ml of 0.6M perchloric acid. Following homogenization and centrifugation, glucose was determined in the supernatant. The precipitate (glycogen) was hydrolyzed enzymically with amyloglucosidase, and glucose was also determined in the resulting hydrolysate (hexokinase test kit, from Boehringer Mannheim).

[2] = test system: allergic inflammation of the delayed type (oxazolone ear edema); assay: Local antiinflammatory effect in oxazolone ear edema in mice following epicutaneous application; format: in vivo, male NMRI mice; conditions: for inflammatory edematous swelling, difference between right and left auricle weights (x ± s) / Inhibition in %: 24 h; for inflammatory edematous swelling, difference between right and left auricle weights (x ± s): mice; for Inhibition in %: vs control
Source text: 1. Local antiinflammatory effect in oxazolone ear edema in mice following epicutaneous application.
The method described by Evans, D. P. et al., Br. J. Pharmacol 43, 403 (1971) was used. In mice, 4-ethoxy-methylene-2-phenyl-2-oxazoline (oxazolone) produces an allergic inflammation of the delayed type which can be inhibited by corticosteroids. The experimental animals employed are male NMRI mice of 25 g body weight which are divided into groups of 10 animals each. The animals were sensitized by applying 0.1 ml of a 2% solution of oxazolone in acetone to the shaven skin of the abdomen. On the 9th day following this sensitization, the allergic inflammation was triggered by applying 10 μl of a 2% solution of oxazolone/acetone to the inner side of the right ear auricle (control group). In the treated groups, the abovementioned solution contained the test preparations. 24 hours after applying the solutions, the animals were killed with CO2. A circular sample, measuring 8 mm, was punched out from each of the treated right ear auricle and the untreated left ear auricle. The samples were weighed immediately, with the difference between the right and left auricle weights representing the measure of the degree of inflammation. This inflammatory edematous swelling, in mg, was set to equal 100% in the control group, and the inflammation-inhibiting effect of the preparations is given as the percentage inhibition as compared with the control.

| gluconeogenic effect (in words) ([1]; 0.1 mg/kg, p<0.05, Dunnett's test) | Structure (SMILES) | effect on paw edema (in words) (carrageenin paw edema; 0.1 mg/kg s.c.) | Increase at 3 h (paw volume) (carrageenin paw edema; 0.1 mg/kg s.c.) [mL] | Increase at 6 h (paw volume) (carrageenin paw edema; 0.1 mg/kg s.c.) [mL] | effect on paw edema (in words) (carrageenin paw edema; 0.3 mg/kg s.c.) | Increase at 3 h (paw volume) (carrageenin paw edema; 0.3 mg/kg s.c.) [mL] | Increase at 6 h (paw volume) (carrageenin paw edema; 0.3 mg/kg s.c.) [mL] | inflammatory edematous swelling, difference between right and left auricle weights (x ± s) ([2]; 0.03 mg/ml epicutaneous) [mg] | Inhibition in % ([2]; 0.03 mg/ml epicutaneous) [%] | inflammatory edematous swelling, difference between right and left auricle weights (x ± s) ([2]; 0.1 mg/ml epicutaneous) [mg] | Inhibition in % ([2]; 0.1 mg/ml epicutaneous) [%] | inflammatory edematous swelling, difference between right and left auricle weights (x ± s) ([2]; 0.3 mg/ml epicutaneous) [mg] | Inhibition in % ([2]; 0.3 mg/ml epicutaneous) [%] | advantage (factor) over deoxymethasone regarding gluconeogenic effect ([1]; rat, in vivo) | local antiinflammatory effect (in words) ([2]; mouse, in vivo) |
| --- | --- | --- | --- | --- | --- | --- | --- | --- | --- | --- | --- | --- | --- | --- | --- |
| already exhibits this undesirable effect | C[C@@H]1C[C@H]2[C@@H]3CCC4=CC(=O)C=C[C@]4(C)[C@@]3(F)[C@@H](O)C[C@]2(C)[C@H]1C(=O)CO [Deoxymethasone, 9α-fluoro-16α-methyl-1(2)-dehydrocorticosterone] | significant effect | 0.28 | 0.23 ± 0.09 | almost completely inhibits the inflammation | 0.17 | 0.03 ± 0.03 | 8.6 ± 3.1 | 36 | 3.9 ± 3.0 | 71 | 2.8 ± 2.3 | 79 | – | – |
| – | C[C@@H]1C[C@H]2[C@@H]3CCC4=CC(=O)C=C[C@]4(C)[C@@]3(F)[C@@H](O)C[C@]2(C)[C@H]1C(=O)COC(=O)/C=C/c1ccccc1 [Cmpnd. I, Deoxymethasone 21-cinnamic ester] | does not | 0.40 ± 0.06 | 0.39 ± 0.12 | practically without effect | 0.46 ± 0.12 | 0.32 ± 0.05 | 7.7 ± 3.7 | 43 | 3.9 ± 2.9 | 71 | 2.3 ± 1.3 | 83 | 3-10 | strong, local antiinflammatory effect |
